The record followed here is patent US8013156B2 (Exelixis, Inc., priority 2003, dated 2011).

The assay concerns the target Tie-2 (Homo sapiens, UniProt Q02763). The experiment in a line: Tie-2 tyrosine kinase activity assay (luciferase/luciferin ATP consumption with pEY substrate, or 33P-ATP incorporation). It counts as biochemical. To be noted: human enzyme Tie-2. On the procedure: One measure of inhibition is Ki. […] The Ki for a compound is determined from the IC50 based on three assumptions. First, only one compound molecule binds to the enzyme and there is no cooperativity. […] Third, the enzymatic rate of the enzyme-inhibitor complex is zero. The rate data (i.e. compound concentration) are fitted to the equation:
[formula] where V is the observed rate, Vmax, is the rate of the free enzyme, I0 is the inhibitor concentration, E0 is the enzyme concentration, and Kd is the dissociation constant of the enzyme-inhibitor complex.
Tyrosine kinase activity is determined by 1) measurement of kinase-dependent ATP consumption by in the presence of a generic substrate such as […], tyrosine (pEY), by luciferase/luciferin-mediated chemiluminescence or; 2) incorporation of radioactive phosphate derived from ^33P-ATP into a generic substrate which has been adsorbed onto the well surface of polystyrene microtiter plates. Phosphorylated substrate products are quantified by scintillation spectrometry.
Inhibition is indicated as IC50 with following key: A=IC50 less than 50 nM, B=IC50 greater than 50 nM, but less than or equal to 1000 nM, C=IC50 greater than 1000 nM, but less than 10,000 nM, D=IC50 10,000 nM or greater, and “-”=no data available. The abbreviation for human enzyme, Tie-2, is defined as tyrosine kinase with immunoglobulin and EGF repeats.

Each structure is given as a SMILES string.

Chain of Tie-2 (Q02763 23-1124): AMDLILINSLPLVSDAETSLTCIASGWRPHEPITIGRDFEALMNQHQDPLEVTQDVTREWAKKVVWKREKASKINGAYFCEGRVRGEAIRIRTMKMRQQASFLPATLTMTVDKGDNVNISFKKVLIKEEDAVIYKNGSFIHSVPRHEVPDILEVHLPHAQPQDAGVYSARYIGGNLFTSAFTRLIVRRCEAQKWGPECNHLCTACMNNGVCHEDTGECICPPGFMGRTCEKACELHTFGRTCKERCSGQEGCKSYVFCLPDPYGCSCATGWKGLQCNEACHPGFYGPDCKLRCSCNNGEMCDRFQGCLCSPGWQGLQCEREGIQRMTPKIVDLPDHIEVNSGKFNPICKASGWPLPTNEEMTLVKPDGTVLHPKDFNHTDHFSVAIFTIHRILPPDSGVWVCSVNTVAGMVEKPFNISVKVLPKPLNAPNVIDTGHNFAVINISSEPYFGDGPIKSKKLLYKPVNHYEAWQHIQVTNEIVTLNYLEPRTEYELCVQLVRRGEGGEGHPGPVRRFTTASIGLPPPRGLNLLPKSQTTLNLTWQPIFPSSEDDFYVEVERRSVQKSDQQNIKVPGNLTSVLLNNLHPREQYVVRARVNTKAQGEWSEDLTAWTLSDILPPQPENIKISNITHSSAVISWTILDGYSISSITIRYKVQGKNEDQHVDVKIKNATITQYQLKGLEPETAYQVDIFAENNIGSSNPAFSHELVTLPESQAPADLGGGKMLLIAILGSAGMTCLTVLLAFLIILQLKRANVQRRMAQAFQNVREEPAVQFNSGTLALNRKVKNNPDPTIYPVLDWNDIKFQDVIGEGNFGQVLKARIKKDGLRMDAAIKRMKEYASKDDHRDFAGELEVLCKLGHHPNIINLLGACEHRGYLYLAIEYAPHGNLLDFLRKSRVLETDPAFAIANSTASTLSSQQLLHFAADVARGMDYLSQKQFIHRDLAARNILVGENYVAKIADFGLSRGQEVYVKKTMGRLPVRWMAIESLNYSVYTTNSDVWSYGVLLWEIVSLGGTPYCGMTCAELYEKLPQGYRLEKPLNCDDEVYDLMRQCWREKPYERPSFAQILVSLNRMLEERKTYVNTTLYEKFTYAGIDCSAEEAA

As for `O=C(Nc1cc(C(F)(F)F)cc(C(F)(F)F)c1)N1CCN(c2nsnc2OCc2ccncc2)CC1` [Example 2], the IC50 (as a rule, the concentration at which inhibition is half-maximal) is < 0.05 µM.
With `O=C(Nc1cccc(Br)c1)N1CCN(c2nsnc2OCc2ccncc2)CC1` [Example 5] the figure was 1 to 10 µM; with `CCc1cccc(NC(=O)N2CCN(c3nsnc3OCc3ccncc3)CC2)c1` [Example 7], 0.05 to 1 µM; with `Cc1cc(C)cc(NC(=O)N2CCN(c3nsnc3OCc3ccncc3)CC2)c1` [Example 8], 0.05 to 1 µM.
With `O=C(Nc1cccc(C(F)(F)F)c1)N1CCN(c2nsnc2OCc2ccncc2)CC1` [Example 9] the figure was 0.05 to 1 µM; with `Cc1cc(COc2nsnc2N2CCN(C(=O)Nc3cc(C(F)(F)F)cc(C(F)(F)F)c3)CC2)c2ccccc2n1` [Example 10], ≥ 10 µM; with `CN(C)c1cccc(COc2nsnc2N2CCN(C(=O)Nc3cc(C(F)(F)F)cc(C(F)(F)F)c3)CC2)c1` [Example 11, N-[3,5-bis(trifluoromethyl)phenyl]-4-[4-({[3-(dimethylamino)phenyl]methyl}oxy)-1,2,5-thiadiazol-3-yl]piperazine-1-carboxamide], ≥ 10 µM.
With `O=C(Nc1cc(C(F)(F)F)cc(C(F)(F)F)c1)N1CCN(c2nsnc2Oc2ccc3[nH]ccc3c2)CC1` [Example 12] the figure was 0.05 to 1 µM; with `O=C(Nc1cc(C(F)(F)F)cc(C(F)(F)F)c1)N1CCN(c2nsnc2OCc2ccsc2)CC1` [Example 13], ≥ 10 µM.
In the case of `O=C(Nc1cc(C(F)(F)F)cc(C(F)(F)F)c1)N1CCN(c2nsnc2OCCN2CCOCC2)CC1` [Example 14], the IC50 is ≥ 10 µM.
As for `COc1ccc(COc2nsnc2N2CCN(C(=O)Nc3cc(C(F)(F)F)cc(C(F)(F)F)c3)CC2)cc1` [Example 17], the IC50 was ≥ 10 µM.
With `O=C(Nc1cc(C(F)(F)F)cc(C(F)(F)F)c1)N1CCN(c2nsnc2OCc2ccoc2)CC1` [Example 20] the figure was ≥ 10 µM; with `CC1CN(c2nsnc2OCc2ccncc2)CCN1C(=O)Nc1cc(C(F)(F)F)cc(C(F)(F)F)c1` (stereo not shown) [Example 22], 0.05 to 1 µM.
In turn, `O=C(Nc1cc(C(F)(F)F)cc(C(F)(F)F)c1)N1CCCN(c2nsnc2OCc2ccncc2)CC1` [Example 23] registered a 50% inhibitory concentration (IC50) of 0.05 to 1 µM.
`CC(C)[C@H]1CC[C@H](C)C[C@@H]1OCC(=O)N1CCN(c2nsnc2OCc2ccncc2)CC1` [Example 24] gave an IC50 of 1 to 10 µM.
With `O=C(NCC1CCN(c2nsnc2OCc2ccncc2)CC1)Nc1cc(C(F)(F)F)cc(C(F)(F)F)c1` [Example 28] the figure was 0.05 to 1 µM; with `O=C(Nc1cc(C(F)(F)F)cc(C(F)(F)F)c1)N1CCN(c2nsnc2OCCCc2cccnc2)CC1` [Example 29, N-[3,5-bis(trifluoromethyl)phenyl]-4-{4-[(3-pyridin-3-ylpropyl)oxy]-1,2,5-thiadiazol-3-yl}piperazine-1-carboxamide], 1 to 10 µM; with `O=C(O)c1ccc(COc2nsnc2N2CCN(C(=O)Nc3cc(C(F)(F)F)cc(C(F)(F)F)c3)CC2)cc1` [Example 32, 4-[({4-[4-({[3,5-bis(trifluoromethyl)phenyl]amino}carbonyl)piperazin-1-yl]-1,2,5-thiadiazol-3-yl}oxy)methyl]benzoic acid], 1 to 10 µM.
In the case of `O=C(Nc1cc(C(F)(F)F)cc(C(F)(F)F)c1)C1CCN(c2nsnc2OCc2ccncc2)CC1` [Example 36, N-[3,5-bis(trifluoromethyl)phenyl]-1-{4-[(pyridin-4-ylmethyl)oxy]-1,2,5-thiadiazol-3-yl}piperidine-4-carboxamide] it was 0.05 to 1 µM; in that of `O=C(Nc1cccc(C(F)(F)F)c1)C1CCN(c2nsnc2OCc2ccncc2)CC1` [Example 37, 1-{4-[(pyridin-4-ylmethyl)oxy]-1,2,5-thiadiazol-3-yl}-N-[3-(trifluoromethyl)phenyl]piperidine-4-carboxamide], 0.05 to 1 µM.
With `O=C(Nc1cc(C(F)(F)F)cc(C(F)(F)F)c1)N1CCN(c2nccnc2OCc2ccncc2)CC1` [Example 38, N-[3,5-bis(trifluoromethyl)phenyl]-4-{3-[(pyridin-4-ylmethyl)oxy]pyrazin-2-yl}piperazine-1-carboxamide] the figure was < 0.05 µM; with `O=C(Nc1cccc(C(F)(F)F)c1)N1CCN(c2nccnc2OCc2ccncc2)CC1` [Example 39, 4-{3-[(pyridin-4-ylmethyl)oxy]pyrazin-2-yl}-N-[3-(trifluoromethyl)phenyl]piperazine-1-carboxamide], < 0.05 µM.
With `CC1CN(c2nsnc2OCc2ccncc2)CCN1C(=O)Nc1cccc(C(F)(F)F)c1` (stereo not shown) [Example 41, 2-methyl-4-{4-[(pyridin-4-ylmethyl)oxy]-1,2,5-thiadiazol-3-yl}-N-[3-(trifluoromethyl)phenyl]piperazine-1-carboxamide], the concentration for half-maximal inhibition (IC50) fell in the range of 0.05 to 1 µM.
In the case of `O=C(Nc1cc(C(F)(F)F)cc(C(F)(F)F)c1)N1CCN(c2nsnc2NCc2ccncc2)CC1` [Example 44, N-[3,5-bis(trifluoromethyl)phenyl]-4-{4-[(pyridin-4-ylmethyl)amino]-1,2,5-thiadiazol-3-yl}piperazine-1-carboxamide] it was 1 to 10 µM; in that of `O=C(Nc1cccc(C(F)(F)F)c1)N1CCCN(c2nsnc2OCc2ccncc2)CC1` [Example 45, 4-{4-[(pyridin-4-ylmethyl)oxy]-1,2,5-thiadiazol-3-yl}-N-[3-(trifluoromethyl)phenyl]-1,4-diazepane-1-carboxamide], 1 to 10 µM.
In the case of `O=C(Nc1cccc(C(F)(F)F)c1)NC1CCN(c2nsnc2OCc2ccncc2)C1` (stereo not shown) [Example 49, N-(1-{4-[(pyridin-4-ylmethyl)oxy]-1,2,5-thiadiazol-3-yl}pyrrolidin-3-yl)-N′-[3-(trifluoromethyl)phenyl]urea] it was 1 to 10 µM; in that of `CC(C)c1ccc(NC(=O)N2CCN(c3nsnc3OCc3ccncc3)CC2C)cc1` (stereo not shown) [Example 50, 2-methyl-N-[4-(1-methylethyl)phenyl]-4-{4-[(pyridin-4-ylmethyl)oxy]-1,2,5-thiadiazol-3-yl}piperazine-1-carboxamide], 1 to 10 µM; in that of `CSc1cccc(NC(=O)N2CCN(c3nsnc3OCc3ccncc3)CC2C)c1` (stereo not shown) [Example 51, 2-methyl-N-[3-(methylthio)phenyl]-4-{4-[(pyridin-4-ylmethyl)oxy]-1,2,5-thiadiazol-3-yl}piperazine-1-carboxamide], 0.05 to 1 µM.
With `C[C@@H]1CN(c2nsnc2OCc2ccncc2)CCN1C(=O)Nc1cc(C(F)(F)F)cc(C(F)(F)F)c1` [Example 52, (2R)-N-[3,5-bis(trifluoromethyl)phenyl]-2-methyl-4-{4-[(pyridin-4-ylmethyl)oxy]-1,2,5-thiadiazol-3-yl}piperazine-1-carboxamide] the figure was 0.05 to 1 µM; with `C[C@@H]1CN(c2nsnc2OCc2ccncc2)CCN1C(=O)Nc1cccc(C(F)(F)F)c1` [Example 53, (2R)-2-methyl-4-{4-[(pyridin-4-ylmethyl)oxy]-1,2,5-thiadiazol-3-yl}-N-[3-(trifluoromethyl)phenyl]piperazine-1-carboxamide], 0.05 to 1 µM.
Compound `C[C@H]1CN(c2nsnc2OCc2ccncc2)CCN1C(=O)Nc1cc(C(F)(F)F)cc(C(F)(F)F)c1` [Example 57, (2S)-N-[3,5-bis(trifluoromethyl)phenyl]-2-methyl-4-{4-[(pyridin-4-ylmethyl)oxy]-1,2,5-thiadiazol-3-yl}piperazine-1-carboxamide] returned a concentration for half-maximal inhibition (IC50) of 0.05 to 1 µM.
